This is an account of results in patent publication US10881667B2, “Method and composition for treating epilepsy” (City University of Hong Kong, priority 2018, dated 2021).

Entries after “also recorded” stand apart in the source; their conditions may differ.

The experiment relates to epilepsy model mice (intrahippocampal kainic acid). The experiment in a line: spontaneous recurrent seizures in kainic acid-induced epilepsy model mice, Racine scale accumulative scores. Type of experiment: in vivo, C57 mice. The settings on record: YM022 100 nM, YF476 1 μM; for accumulative scores of spontaneous seizures / spontaneous seizures onset after drug intervention: adult male C57 mice, kainic acid model, i.p. injection, 10 μL (5 mice), 10 μL (9 mice), vs day before intervention; for seizure onsets after multiple injections: kainic acid model mice, multiple i.p. injections, 10 μL. On the procedure: FIG. 1 is a series of line plots depicting the statistics of the accumulative scores of spontaneous seizures of epilepsy model mice before and after single or multiple drug interventions ([…], 1 μM, 10 μL). The 9 lines represent 9 epilepsy model mice of the experiment, and the black arrows indicate the time of drug interventions. Accumulative scores were recorded base on the quantity and severity of spontaneous seizures: 3=Racine scale stage-5 seizure; 2=Racine scale stage-4 seizure; 1=Racine scale stage-3 seizure; accumulative score is equal to sum of scores of seizures on daily basis.
FIG. 2 is a series of line plots depicting the statistics of the accumulative scores of spontaneous seizures of epilepsy model mice before and after single or multiple drug interventions (YM022, 100 nM, 10 μL). The 5 lines represent 5 epilepsy model mice of the experiment, and the black arrows indicate the time of drug interventions.
Adult male C57 mice were housed under standard conditions, with food and water available. For injection of kainic acid, mice were anesthetized with sodium pentobarbital (50 mg/kg, i.p.; Ceva Sante Animale Co., France), and atropine sulphate (0.05 mg/kg, s.c.) was administered to inhibit tracheal secretions. Kainic acid (0.3 mg/mL, 650 nL, Tocris), was stereotaxically injected into the right CA3 area of the hippocampus. Kainic acid was slowly injected over 60 s with a 2 μL microsyringe at the following stereotaxic coordinates: AP, −2.06; ML, −1.80; DV, −1.60, respectively. After injection, the needle of the syringe was maintained in situ for additional 5 min to limit reflux along the injection track. Directly after surgery, the mice were housed in clear plexiglass cages (one per cage). A special camera was placed diagonally above each cage for monitoring in both the light and dark phase. Exactly 2 weeks after kainic acid treatment, all videos were collected regularly, and three trained technicians blind to drug intervention viewed the videos. The seizure activities during 12-h epoch (00:00 a.m. to 12:00 p.m.) were rated with Racine scale (Electroencephalogr Clin Neurophysiol, 1972, 32(3): 281-294). Accumulative scores were recorded base on the quantity and severity of spontaneous seizures: 3=Racine scale stage-5 seizure; 2=Racine scale stage-4 seizure; 1=Racine scale stage-3 seizure; accumulative score is equal to sum of scores of seizures on daily basis.
The model of epilepsy induced in mice by kainic acid reproduces most of the clinical and neurophysiological features of human temporal lobe epilepsy. Unilateral intrahippocampal injection of kainic acid induced a limbic status epilepticus which may last for up to 5 hours. […]

As to `CNc1cccc(NC(=O)N[C@@H]2N=C(c3ccccn3)c3ccccc3N(CC(=O)C(C)(C)C)C2=O)c1` [YF476], the “accumulative scores of spontaneous seizures / spontaneous seizures onset after drug intervention” value is recorded as “significantly reduce; also recorded: significant reduction” and the “seizure onsets after multiple injections” value is given as “very rare”.

In the case of `Cc1cccc(NC(=O)N[C@@H]2N=C(c3ccccc3)c3ccccc3N(CC(=O)c3ccccc3C)C2=O)c1` [YM022], the “accumulative scores of spontaneous seizures / spontaneous seizures onset after drug intervention” value is reported as “significantly reduce; also recorded: significant reduction” and the “seizure onsets after multiple injections” value is reported as “very rare”.
